Counter-ions that a name gives are not always drawn.
How the values were obtained:
[1] = test system: ectopic firing; details: as described in Patent document 1, Example 129; cited from earlier work
[2] = test system: sodium channels in cultured rat hippocampus; details: Patent document 1, Example 129; cited from earlier work
[3] = molecular target: T1, human Nav1.8 (Homo sapiens, UniProt Q9Y5Y9); assay: Pharmacological effects on TTX-resistant Na channels in cells expressing human Nav1.8 gene (membrane potential dye, deltamethrin stimulation); format: cell-based
T1 construct: expressed in transfected cells
T1 sequence (Q9Y5Y9 whole entry): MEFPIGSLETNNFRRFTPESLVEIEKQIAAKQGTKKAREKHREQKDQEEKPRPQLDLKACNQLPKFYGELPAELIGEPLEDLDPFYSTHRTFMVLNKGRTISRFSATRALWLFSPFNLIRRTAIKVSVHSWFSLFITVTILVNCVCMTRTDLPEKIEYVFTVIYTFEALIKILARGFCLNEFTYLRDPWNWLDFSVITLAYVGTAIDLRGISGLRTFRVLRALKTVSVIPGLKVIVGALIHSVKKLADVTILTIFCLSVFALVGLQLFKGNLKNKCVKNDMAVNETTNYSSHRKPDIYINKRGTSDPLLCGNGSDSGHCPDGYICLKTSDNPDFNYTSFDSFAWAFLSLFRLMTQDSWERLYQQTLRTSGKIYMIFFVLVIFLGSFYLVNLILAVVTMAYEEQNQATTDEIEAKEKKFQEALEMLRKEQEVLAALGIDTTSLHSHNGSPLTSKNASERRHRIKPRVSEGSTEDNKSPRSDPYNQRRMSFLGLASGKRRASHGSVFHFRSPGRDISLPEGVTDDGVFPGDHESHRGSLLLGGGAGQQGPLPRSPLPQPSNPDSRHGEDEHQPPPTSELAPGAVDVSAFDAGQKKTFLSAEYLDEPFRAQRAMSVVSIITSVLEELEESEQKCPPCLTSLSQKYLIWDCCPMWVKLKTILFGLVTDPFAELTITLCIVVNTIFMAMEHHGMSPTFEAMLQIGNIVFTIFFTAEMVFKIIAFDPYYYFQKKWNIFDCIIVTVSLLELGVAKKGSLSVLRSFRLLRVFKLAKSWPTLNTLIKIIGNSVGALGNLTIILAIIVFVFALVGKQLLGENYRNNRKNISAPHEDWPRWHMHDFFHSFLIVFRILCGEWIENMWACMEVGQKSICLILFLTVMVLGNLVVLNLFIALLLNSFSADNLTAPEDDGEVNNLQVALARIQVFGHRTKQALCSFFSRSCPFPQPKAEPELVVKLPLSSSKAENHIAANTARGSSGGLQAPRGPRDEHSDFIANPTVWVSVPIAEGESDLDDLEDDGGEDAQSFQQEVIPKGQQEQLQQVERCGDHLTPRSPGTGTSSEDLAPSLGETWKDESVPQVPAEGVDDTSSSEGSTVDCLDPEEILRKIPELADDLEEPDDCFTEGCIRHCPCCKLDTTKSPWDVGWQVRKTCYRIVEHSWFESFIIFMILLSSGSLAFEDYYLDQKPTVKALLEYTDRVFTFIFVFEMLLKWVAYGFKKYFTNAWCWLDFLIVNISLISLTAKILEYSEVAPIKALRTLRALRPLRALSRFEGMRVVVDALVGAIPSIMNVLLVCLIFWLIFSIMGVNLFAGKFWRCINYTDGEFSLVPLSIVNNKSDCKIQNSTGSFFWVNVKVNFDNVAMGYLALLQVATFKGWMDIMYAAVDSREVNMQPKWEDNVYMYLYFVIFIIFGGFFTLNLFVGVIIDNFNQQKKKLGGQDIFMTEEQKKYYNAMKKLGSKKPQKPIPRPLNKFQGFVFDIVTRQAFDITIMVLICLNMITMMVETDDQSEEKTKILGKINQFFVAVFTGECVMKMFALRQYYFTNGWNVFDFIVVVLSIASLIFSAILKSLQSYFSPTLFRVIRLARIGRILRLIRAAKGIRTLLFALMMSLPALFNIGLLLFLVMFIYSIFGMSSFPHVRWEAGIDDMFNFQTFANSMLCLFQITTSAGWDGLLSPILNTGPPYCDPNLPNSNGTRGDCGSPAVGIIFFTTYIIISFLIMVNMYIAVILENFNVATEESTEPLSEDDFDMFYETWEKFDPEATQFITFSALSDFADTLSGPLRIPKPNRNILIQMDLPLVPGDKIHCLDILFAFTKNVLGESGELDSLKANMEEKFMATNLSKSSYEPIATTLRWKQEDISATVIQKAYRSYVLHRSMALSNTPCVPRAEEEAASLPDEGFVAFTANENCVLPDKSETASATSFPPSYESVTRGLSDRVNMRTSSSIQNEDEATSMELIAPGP
Experimental: Pharmacological Effects on TTX-Resistant Na Channels in Cells Expressing Human Nav1.8 Gene
A cell line expressing human Nav1.8 gene was used to evaluate the pharmacological effects of compounds of the invention.
. A membrane potential-sensitive dye containing TTX (final concentration: 0.25 μM) was added to cells expressing human Nav1.8, prior to incubation at 37° C. for 30-60 minutes. • 2. The test compound was added to the cells, and the mixture was stationed for 15-30 minutes at room temperature while shielded from light. • 3. Deltamethrin (final concentration: 50 μM), a Nav1.8 channel stimulant, was added, and the change in fluorescence intensity due to increased membrane potential was measured. Pharmacological Evaluation
The Nav1.8 channel inhibition of the test compound was determined by the following equation. […] Test Results

**Q.** What does the source list for `O=c1[nH]cccc1CN1CC2CCCC(C1)C2/C=C/c1ccccc1F` (stereo not shown)?
**A.** inhibitory activity against ectopic firing [1]: inadequate; inhibitory activity against sodium channels [2]: has an inhibitory activity

**Q.** Which IC50 [3] does the source give for `CCn1c(C)nc(=O)n(C[C@H](O)CN2[C@@H]3CC[C@H]2C[C@@H](OCc2ccccc2CF)C3)c1=O` [Example 66, (Endo)-1-ethyl-3-{(R)-3-[3-(2-fluoromethylbenzyloxy)-8-azabicyclo[3.2.1]oct-8-yl]-2-hydroxypropyl}-6-methyl-1H-[1,3,5]triazine-2,4-dione oxalate] here?
**A.** 5.4 µM

**Q.** With `CNCCCN1c2ccccc2CCc2ccccc21` [desipramine] as the molecule, how does the Nav1.8 channel inhibition ([3]; 30 μM desipramine, reference for complete inhibition under deltamethrin stimulation) read?
**A.** completely inhibits
